According to PubChem BioAssay (NCI):
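Method: 48-hour compound exposure of cells in 96-well plates, five concentrations, linear interpolation of endpoints. Abbreviation: GI50, concentration required for 50% inhibition of growth. TGI: concentration producing complete growth inhibition.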

What was measured:
Experiment in all cases: NCI tumour cell line growth inhibition, 48 h
K-562 leukemia = tested on: K-562 leukemia
HCT-15 colon = tested on: HCT-15 colon
UACC-62 melanoma = tested on: UACC-62 melanoma
SN12C renal = tested on: SN12C renal
DMS 273 small cell lung = tested on: DMS 273 small cell lung
HT29 colon = tested on: HT29 colon
SK-MEL-2 melanoma = tested on: SK-MEL-2 melanoma
EKVX NSCLC = tested on: EKVX NSCLC
HOP-18 NSCLC = tested on: HOP-18 NSCLC
SK-MEL-28 melanoma = tested on: SK-MEL-28 melanoma
HOP-62 NSCLC = tested on: HOP-62 NSCLC

SMILES	TGI (K-562 leukemia)	TGI (HCT-15 colon)	TGI (UACC-62 melanoma)	TGI (SN12C renal)	TGI (DMS 273 small cell lung)	TGI (HT29 colon)	TGI (SK-MEL-2 melanoma)	TGI (EKVX NSCLC)	TGI (HOP-18 NSCLC)	TGI (SK-MEL-28 melanoma)	TGI (HOP-62 NSCLC)	GI50 (HOP-62 NSCLC)	GI50 (K-562 leukemia)	GI50 (HCT-15 colon)	GI50 (UACC-62 melanoma)	GI50 (SN12C renal)	GI50 (HT29 colon)	GI50 (SK-MEL-2 melanoma)	GI50 (EKVX NSCLC)	GI50 (SK-MEL-28 melanoma)
c1ccc2c(c1)nc1n2CSC1	> 100 µM	> 100 µM	> 100 µM	> 100 µM	> 100 µM	> 100 µM	> 100 µM	> 100 µM	> 100 µM	> 100 µM										
CC1=C[C@]2(CC(C)C3C(CC4(C)C5CCC6C(C)(C)C(=O)CC[C@@]67C[C@@]57CC[C@]34C)O2)OC1=O (some centres undefined)	> 100 µM	> 100 µM		> 100 µM	32.6 µM	> 100 µM	> 100 µM	> 100 µM	> 100 µM	> 100 µM										
Cc1nc2ccccc2c(=O)n1CC(=O)O	> 100 µM	> 100 µM	> 100 µM	> 100 µM	> 100 µM	> 100 µM	> 100 µM	> 100 µM	> 100 µM	> 100 µM	> 100 µM									
CCN(CC)CCCC(Nc1c2ccc(Cl)cc2nc2ccc(OC)cc12)c1ccc(F)cc1 (centres undefined)	4.26 µM	3.27 µM	3.25 µM	4.68 µM		9.87 µM	4.35 µM	8.48 µM		3.2 µM	6.87 µM	2.54 µM	2.18 µM	1.56 µM	1.71 µM	2.03 µM	2.7 µM	2.1 µM	2.08 µM	1.71 µM
Cc1cccc2c(N)c3cccc(C(=O)NCCN(C)C)c3nc12	0.543 µM	4.29 µM	0.227 µM	0.457 µM			0.463 µM	0.469 µM		0.482 µM	0.459 µM									
CCCCN(CCCC)CCCCNc1c(C)cnc2cc(Cl)ccc12	43.3 µM	> 100 µM		> 100 µM		57.8 µM	39.9 µM	46.3 µM	> 100 µM	33.2 µM	68.2 µM									
Nc1ncnc2c1ncn2C1CCC(CO)O1 (centres undefined)	> 100 µM	> 100 µM	> 100 µM	> 100 µM	> 100 µM	> 67.2 µM	> 100 µM	100 µM	> 100 µM	> 68.2 µM	> 100 µM									
[C-]#[O+].[Cl][Sn]([Cl])[Cl].[Cl][Sn]([Cl])[Cl].[Pt].c1ccncc1	> 100 µM	> 100 µM	> 100 µM	> 100 µM	> 100 µM	> 100 µM	> 100 µM	> 100 µM		> 100 µM	> 100 µM									
CO/N=C1/c2sccc2[C@H](NC(=O)C(F)(F)F)[C@@H]1O	> 100 µM	> 100 µM	> 100 µM	> 100 µM		> 100 µM	> 100 µM	> 100 µM		> 100 µM	> 100 µM									
CCOc1ccc(/C=C/[N+](=O)[O-])cc1	> 100 µM	11.3 µM	27.2 µM	28.3 µM		5.27 µM	33 µM	81.7 µM		30.9 µM	26.3 µM	12.5 µM	4.52 µM	2.84 µM	13.8 µM	14.7 µM	2.32 µM	17.1 µM	25.7 µM	16.6 µM
CC(/C=C/c1ccc([N+](=O)[O-])o1)=N/N1CC(CN2CCOCC2)OC1=O (centres undefined)	61.1 µM	40.3 µM	52.3 µM	> 100 µM		> 100 µM	34.6 µM	> 100 µM		38.2 µM	> 100 µM									
CCOP(=O)(OCC)C(Cc1ccc(OC)c(OC)c1)N=C(c1ccccc1)c1ccccc1 (centres undefined)	22.4 µM	> 100 µM	> 100 µM	> 100 µM		> 100 µM				> 100 µM										
CC(C)=CCc1c(C)cc2cc3c(c(O)c2c1O)C(O)=CC(=O)C3(CC=C(C)C)C/C=C(\C)CO (centres undefined)	90.9 µM	68 µM	67.5 µM	76.8 µM	109 µM	81.4 µM	29.8 µM	70.7 µM	35.3 µM	86.8 µM	64.3 µM									
COc1cc2c3c(n(CCN(C)C)c(=O)c2cc1OC)-c1cc2c(cc1C3=O)OCO2	97.4 µM	> 100 µM		> 100 µM		> 73.4 µM	> 100 µM	> 100 µM		> 100 µM	> 86.1 µM		2.53 µM	2.32 µM		4.38 µM		> 96.1 µM	37 µM	> 28.4 µM
COc1ccc(/C=N/NC(=O)NCCCN(C)C)cc1	> 100 µM	> 100 µM	> 100 µM	> 100 µM	> 100 µM	> 100 µM	> 100 µM		> 100 µM	> 100 µM										
CN1CCN(Cc2ccc(NC(=O)c3ccc(C#N)c(C#Cc4cnc(N)c5ncccc45)c3)cc2C(F)(F)F)CC1			3.26 µM	5.43 µM			> 100 µM	89.7 µM							1.73 µM	2.19 µM		2.45 µM	19.3 µM	
CC(C)=CC(=O)OC1C2C(C)C(=O)OC2C(O)C(C)C2C=CC(=O)C21C (centres undefined)	25.3 µM	8.52 µM	4.64 µM	8.19 µM	8.85 µM	7.94 µM	11.5 µM	7.88 µM	11.2 µM	3.82 µM	14.7 µM									
C[C@]12C=CC(=O)C=C1CC[C@@H]1[C@@H]2C(=O)C[C@@]2(C)[C@H]1CC[C@]2(O)C(=O)CO	> 100 µM	> 100 µM	> 100 µM	> 100 µM		> 100 µM	> 100 µM	> 100 µM		> 100 µM	> 100 µM									
Cc1ccc(S(=O)(=O)Oc2cc(S(=O)(=O)O)cc3cc(S(=O)(=O)O)cc(N)c23)cc1	> 100 µM	> 100 µM	> 100 µM	> 100 µM		> 100 µM	> 100 µM	> 100 µM		> 100 µM	> 100 µM									
